Usually IC50 stands for the concentration at which inhibition is half-maximal. What is called GI50 is the concentration giving 50% growth inhibition. Low readings indicate greater sensitivity of the cells, high ones lower sensitivity of the cells. By Kd is commonly meant the free concentration of one partner at which half of the binding sites on the other are occupied at equilibrium, for simple one-to-one binding. A high value points to a looser complex.

Test [1] addresses T1, His-tagged BRD4 BD2 (333-460) (Homo sapiens, UniProt O60885).
T1 construct: The same assay was developed for His-tagged BRD4 BD2 (333-460) and biotinylated histone H4K5/8/12/16(Ac) peptide
In words: AlphaLISA competition assay, BRD4 BD2. The class given is binding. The conditions noted are these: BRD4-BD2, AlphaLISA competition with biotinylated histone H4K5/8/12/16(Ac) peptide, 20 nM. In outline: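 His-tagged BRD4 BD2 (333-460) and biotinylated H4K5/8/12/16(Ac) peptide at 20 nM final, in 20 mM HEPES pH 7.5, 100 mM NaCl, 0.5 mM TCEP, 0.1% BSA, 0.02% CHAPS. Compounds incubated 1 h at room temperature, then streptavidin acceptor and nickel chelate donor beads added. IC50 derived from AlphaLISA signal.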

Test [2] has as its system T-Rex 293 cell line SC cells having increased expression of BCL6 protein. In words: Cellular growth inhibition assay, T-Rex 293 SC cells with doxycycline (CellTiter-Glo). The note with it: T-Rex 293 SC cells with 10 ng/mL doxycycline (increased BCL6 expression), 72 hours, CellTiter-Glo 2.0. The class given is cell-based. (In ATP-based viability assays light output follows the ATP content of the culture.)

Test [3] addresses T2, His-tagged BRD4 BD1 (46-168) (Homo sapiens, UniProt O60885).
T2 construct: His-tagged BRD4 BD1 (46-168) and biotinylated histone H4K5/8/12/16(Ac) peptide
Briefly: AlphaLISA competition assay, BRD4 BD1. The class given is binding. The note with it: BRD4-BD1, AlphaLISA competition with biotinylated histone H4K5/8/12/16(Ac) peptide, 10 nM. In outline: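 His-tagged BRD4 BD1 (46-168) and biotinylated H4K5/8/12/16(Ac) peptide, each 10 nM final, in 20 mM HEPES pH 7.5, 100 mM NaCl, 0.5 mM TCEP, 0.1% BSA, 0.02% CHAPS; compounds incubated 1 h at room temperature. Streptavidin acceptor and Ni-chelate donor beads added; IC50 from AlphaLISA signal.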
On the technique in general: Bead proximity is the source of the signal in Alpha formats.

Test [4] concerns T-Rex 293 cell line SC cells lacking increased expression of BCL6 protein. In words: Cellular growth inhibition assay, T-Rex 293 SC cells without doxycycline (CellTiter-Glo). The class given is cell-based. The note with it: T-Rex 293 SC cells not exposed to doxycycline (no increased BCL6 expression), 72 hours, CellTiter-Glo 2.0.
In test [5] the target is T3, biotinylated BCL6 (5-129) (Homo sapiens, UniProt P41182).
T3 construct: biotinylated BCL6 (5-129) was diluted in 10 mM HEPES pH 7.4; biotin (biotinylated)
Briefly: SPR assay for binding affinity to BCL6. The conditions noted are these: Biacore 8K, 25° C., immobilized biotinylated BCL6 (5-129). As for the experimental part: Exemplary compounds were tested for ability to bind to B-cell lymphoma 6 (BCL6) protein.
Binding studies by surface plasmon resonance (SPR) were performed using a Biacore 8K (Cytiva) instrument at 25° C. Briefly, biotinylated BCL6 (5-129) was diluted in 10 mM HEPES pH 7.4, 150 mM NaCl, 0.05% Surfactant P20, 0.5 mM TCEP, 3% DMSO to 1-5 μg/mL and was immobilized on an SA sensor chip (Cytiva, BR100032), resulting in surface densities at 1000-3000 resonance units (RUs). Test compounds were serially diluted five times in the same buffer and were injected to the immobilized surface. Kinetic determination experiments were performed using single-cycle kinetics with 110-120 s contact time, 1000-4000 s dissociation time, 30 μL/min flow rate. Binding data were analyzed by using Biacore insight evaluation software to determine KD values for test compounds.
On the technique in general: In SPR one partner is held on a chip, and binding of the other changes the refractive index at the surface.

Test [6] has as its system Su-DHL-4 cell line. In words: Cellular growth inhibition assay, Su-DHL-4 cells (CellTiter-Glo). The class given is cell-based. The conditions noted are these: Homo sapiens; Su-DHL-4 cell line (DLBCL), 72 hours, CellTiter-Glo 2.0. As for the experimental part: Exemplary compounds were tested for ability to inhibit the proliferation of Su-DHL-4 and Farage cells. Su-DHL-4 and Farage cells are commercially available diffuse large B cell lymphoma cell lines (DLBCL).
Su-DHL-4 and Farage cells were purchased from American Type Cell Culture (ATCC Cat #CRL-2957/CRL-2630) and then seeded on poly-D-lysine coated, black clear-bottom 384-well plates at 3000/well in 25 μL Roswell Park Memorial Institute media (RPMI-1640) supplemented with 10% w/w Fetal bovine serum (FBS) and 1% w/w Pen-Strep. Pen-Strep is a commercially available mixture of penicillin G and streptomycin, which is used in mammalian cell culture media to prevent bacterial contamination. Roswell Park Memorial Institute media (RPMI-1640) supplemented with 10% w/w fetal bovine serum (FBS), and 1% w/w Pen-Strep is herein referred to as Treatment Medium. Following seeding of cells in the plates, the plates were spun at 300×g for 30 seconds, then equilibrated to room temperature for 30 minutes, and then deposited in a humidified tissue culture incubator maintained at 37° C. with 5% CO2.
At 24 hours after seeding of the cells, dilutions of test compound were prepared in DMSO and dissolved in Treatment Medium, to achieve a final DMSO concentration of 0.5% w/w, thereby providing the Test Compound Solution. A 25 μL aliquot of the Test Compound Solution was added to cells in the well plates. An equal volume of a solution containing DMSO and Treatment Medium was used as a negative control. Following treatment of cells with Test Compound Solution or said equal volume of a solution containing DMSO and Treatment Medium, the plates were spun at 300×g for 30 seconds, and then left in an incubator for 72 hours.
At the end of the treatment duration, cell viability was quantified with CellTiter-Glo 2.0 reagent (Promega Cat #G9243). For this purpose, plates were equilibrated to room temperature for 30 minutes, and then 25 μL of CellTiter-Glo 2.0 reagent was added to cells in the plate wells. Plates were then agitated on a shaker for two minutes at 500 rpm and subsequently incubated at room temperature for 10 minutes. Following incubation, the plates were spun at 3000×g for 30 seconds, then sealed with an optical adhesive cover, and luminescence readings were measured with an EnVision Plate Reader (Perkin Elmer).
Data was normalized using zero luminescence for baseline. A four-parameter non-linear regression curve fit was applied to dose-response data in GraphPad Prism data analysis software to determine the half-maximal growth inhibitory concentration (GI50) for each test compound.

Test [7] deals with Farage cell line. Briefly: Cellular growth inhibition assay, Farage cells (CellTiter-Glo). The conditions noted are these: Farage cell line (DLBCL), 72 hours, CellTiter-Glo 2.0. The class given is cell-based. In short, it runs like this:
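DLBCL lines Su-DHL-4 and Farage were seeded at 3000 cells/well in RPMI-1640 with 10% FBS. Compound dilutions (final DMSO 0.5%) were added 24 h later and incubated 72 h at 37C. Viability was read by CellTiter-Glo 2.0 luminescence, and GI50 came from four-parameter fits.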

As to `CNC(=O)COc1cc2cc(Nc3nc(N4CCC(CC5CN(CC6CC(Oc7ccc(C(C)(C)O)cc7-c7cn(C)c(=O)c8[nH]ccc78)C6)C5)CC4)ncc3Cl)ccc2n(C)c1=O` (stereo not shown) [Compound I-22, 2-[[6-[[5-chloro-2-[4-[[1-[[3-[4-(1-hydroxy-1-methyl-ethyl)-2-(6-methyl-7-oxo-1H-pyrrolo[2,3-c]pyridin-4-yl)phenoxy]cyclobutyl]methyl]azetidin-3-yl]methyl]-1-piperidyl]pyrimidin-4-yl]amino]-1-methyl-2-oxo-3-quinolyl]oxy]-N-methyl-acetamide], the IC50 in test [1] and in test [3] was less than 5 nM throughout. The GI50 in test [2], in test [4], in test [6] and in test [7] was less than 500 nM throughout. In test [5], this molecule displayed a Kd of 1 to 10 nM.
Regarding `CNC(=O)COc1cc2cc(Nc3nc(N4CCC(CCN5CCN(CCN(C)[C@H]6C[C@H](Oc7ccc(C(C)(C)O)cc7-c7cn(C)c(=O)c8[nH]ccc78)C6)CC5)CC4)ncc3Cl)ccc2n(C)c1=O` [Compound I-21], the IC50 in test [1] and in test [3] was less than 5 nM throughout. In addition, the concentration for 50% growth inhibition (GI50) in test [2] is less than 500 nM; in test [4], 1500 to 3000 nM; in test [6], less than 500 nM; in test [7] it was less than 500 nM. The molecule also yielded a Kd in test [5] of 1 to 10 nM.
In the case of `CNC(=O)COc1cc2cc(Nc3nc(N4CCC(CN5CCN(CCN(C)[C@H]6C[C@H](Oc7ccc(C(C)(C)O)cc7-c7cn(C)c(=O)c8[nH]ccc78)C6)CC5)CC4)ncc3Cl)ccc2n(C)c1=O` [Compound I-20], the values for the IC50 in test [1] and in test [3] were less than 5 nM and 5 to 50 nM, respectively. Further, the GI50 in test [2] was less than 500 nM; in test [4], 500 to 1500 nM; in test [6] it was less than 500 nM; in test [7] it was less than 500 nM. Moreover, the Kd in test [5] was in the range of 1 to 10 nM.
With `CNC(=O)COc1cc2cc(Nc3nc(N4CCN(CCN(C)C5CC(Oc6ccc(C(C)(C)O)cc6-c6cn(C)c(=O)c7[nH]ccc67)C5)CC4)ncc3Cl)ccc2n(C)c1=O` (stereo not shown) [Compound I-18, 2-[[6-[[5-chloro-2-[4-[2-[[3-[4-(1-hydroxy-1-methyl-ethyl)-2-(6-methyl-7-oxo-1H-pyrrolo[2,3-c]pyridin-4-yl)phenoxy]cyclobutyl]-methyl-amino]ethyl]piperazin-1-yl]pyrimidin-4-yl]amino]-1-methyl-2-oxo-3-quinolyl]oxy]-N-methyl-acetamide], the IC50 was less than 5 nM in test [1] and 5 to 50 nM in test [3]. Also, the GI50 is less than 500 nM in test [2], 500 to 1500 nM in test [4], less than 500 nM in test [6] and less than 500 nM in test [7]. Further, in test [5], the Kd was in the range of 1 to 10 nM.
In the case of `CNC(=O)COc1cc2cc(Nc3nc(N4CCCC5(CC(Oc6ccc(C7=N[C@@H](Cc8ncco8)c8nnc(C)n8-c8sc(C)c(C)c87)cc6)C5)C4)ncc3Cl)ccc2n(C)c1=O` (stereo partly shown) [Compound I-27], the IC50 was less than 5 nM in test [1] and 5 to 50 nM in test [3]. Moreover, the GI50 in test [2], in test [4], in test [6] and in test [7] was less than 500 nM in each case. In test [5], this molecule registered a Kd greater than 100 nM.
For the molecule `CNC(=O)COc1cc2cc(Nc3nc(N4CCN(CCN5CCN(CCOc6cccc(Oc7ccc(C(C)(C)O)cc7-c7cn(C)c(=O)c8[nH]ccc78)c6)CC5)CC4)ncc3Cl)ccc2n(C)c1=O` [Compound I-23, 2-[[6-[[5-chloro-2-[4-[2-[4-[2-[3-[4-(1-hydroxy-1-methyl-ethyl)-2-(6-methyl-7-oxo-1H-pyrrolo[2,3-c]pyridin-4-yl)phenoxy]phenoxy]ethyl]piperazin-1-yl]ethyl]piperazin-1-yl]pyrimidin-4-yl]amino]-1-methyl-2-oxo-3-quinolyl]oxy]-N-methyl-acetamide], the IC50 in test [1] and in test [3] was less than 5 nM throughout. Also, the GI50 in test [2] was less than 500 nM; in test [4], 500 to 1500 nM; in test [6], less than 500 nM; in test [7], less than 500 nM. The molecule further yielded a Kd in test [5] of 1 to 10 nM.
On to `CNC(=O)COc1cc2cc(Nc3nc(N4CCC(CCN5CCN(CCOc6cccc(Oc7ccc(C(C)(C)O)cc7-c7cn(C)c(=O)c8[nH]ccc78)c6)CC5)CC4)ncc3Cl)ccc2n(C)c1=O` [Compound I-24], for which the IC50 in test [1] was less than 5 nM; in test [3], 50 to 500 nM. For the same molecule, the GI50 in test [2], in test [4], in test [6] and in test [7] was less than 500 nM throughout. The Kd in test [5] was 1 to 10 nM.

These data come from patent US20260028338A1, “HETEROBIFUNCTIONAL COMPOUNDS AND METHODS OF TREATING DISEASE” (Halda Therapeutics OpCo, Inc., priority 2023, published 2026).
